Read-outs that look alike come from different tables or passages of the source. Square brackets hold non-standard residues; d marks the D form. Peptide text beside a SMILES is read from it.

The test system of assay [1] is P. aeruginosa Strain 121007. Type of assay: cell-based, Pseudomonas aeruginosa. The method, then: (§1) The antimicrobial activity of the peptides was tested against a collection of P. aeruginosa, selected by their resistance or susceptibility to colistin and/or classified as MDR strains. The origin of the strains was either clinical, relevant to the current clinical situation, or commercial strains belonging to the American Type Culture Collection (ATCC, Manassas, VA, USA), which complemented the collection for comparison and control. For the initial activity screening of the 17 peptides, we tested them against P. aeruginosa ATCC strains 1211007 and 1211101. Both strains are multidrug-resistant; however, the key difference is that strain 1211007 is susceptible to colistin, whereas strain 1211101 is resistant to colistin.
(§2) Minimum Inhibitory Concentration (MIC) of the antimicrobial agents against bacterial strains was obtained through broth microdilution assays following a protocol based on the Clinical & Laboratory Standards Institute’s guidelines. Modifications regarding microplate material and broth were included when testing the peptides’ activity and are detailed below. Colistin MICs were obtained following recommendations of the joint CLSI-EUCAST Polymyxin Breakpoints Working Group using Cation Adjusted Mueller-Hinton Broth (90922, 500 g Sigma-Aldrich®, St. Louis, MO, USA), and strains Escherichia coli 13846 (mcr-1 positive) and P. aeruginosa ATCC 27853 were used as quality controls in all assays. Bacteria were cultured in Columbia Agar plates (Columbia Agar with 5% Sheep Blood 90 mm Stacker plates, Becton Dickinson, Franklin Lakes, NJ, USA) and incubated overnight at 37 °C. Polypropylene round-bottomed 96-well plates (-96-well Polypropylene Storage Microplates, 267334, Thermo Fischer Scientific, Waltham, MA, USA) were used to prevent peptide binding to plate walls. AST broth (BD Phoenix™ AST broth, 8 mL, 246003, Becton Dickinson, Franklin Lakes, NJ, USA) was used when testing the peptides’ activity. […] Three biological and technical replicates were performed per strain.

In assay [2] the test system is P. aeruginosa Strain ATCC 121110. Type of assay: cell-based, Pseudomonas aeruginosa. As for the experimental part:
as §1, §2

The mark [3] stands for this setting: Strain 121007, value in brackets.
The mark [4] stands for this setting: Strain ATCC 121110, value in brackets.

One may read the MIC as the least concentration at which growth counts as inhibited. A higher MIC goes with a less susceptible organism. In the case of `CC[C@@H](C)[C@@H](NC(=O)CNC(=O)[C@@H](CCC(N)=O)NC(=O)[C@@H](CCCCN)NC(=O)[C@H](NC(=O)[C@@H](CCC(N)=O)NC(=O)CNC(=O)[C@@H](CC(C)C)NC(=O)[C@@H](CC(C)C)NC(=O)[C@H]1CCCN1C(=O)[C@@H](CCCCN)NC(=O)[C@H](N)CC(C)C)[C@H](C)CC)C(=O)N[C@H](CCCCN)C(=O)N[C@H](CCCCN)C(=O)N[C@H](CC(C)C)C(=O)N[C@H](CCCCN)C(=O)N[C@H](CCC(=O)O)C(=O)N[C@H](CCCCN)C(=O)N[C@@H](C(=O)N[C@H](CCCCN)C(=O)N[C@H](CC(N)=O)C(=O)N[C@H](CCCNC(=N)N)C(=O)N[C@H](Cc1ccccc1)C(=O)N[C@H](CCCCN)C(=O)N[C@H](CCCNC(=N)N)C(=O)N[C@H](CC(C)C)C(=O)N[C@H](CCCNC(=N)N)C(=O)N[C@H](CCCCN)C(=O)N[C@H](CCCNC(=N)N)C(=O)N[C@H](CC(C)C)C(=O)NCC(=O)O)[C@H](C)CC` [R-CAP-18_31, Lkpllgqikqgikklkekiknrfkrlrkrlg] (H-[dL][dK][dP][dL][dL]G[dQ][dI][dK][dQ]G[dI][dK][dK][dL][dK][dE][dK][dI][dK][dN][dR][dF][dK][dR][dL][dR][dK][dR][dL]G-OH), the MIC is 0.5 µg/mL in assay [1] (Strain 121007), 0.1 µM in assay [1] (setting [3]), 4 µg/mL in assay [2] (Strain ATCC 121110) and 1.1 µM in assay [2] (setting [4]).
On to H-FRNKIKEKLKKIGQKIQG-OH [CAP-18_18], for which the MIC in assay [1] (Strain 121007) is > 64 µg/mL; in assay [1] (setting [3]), > 30 µM; in assay [2] (ATCC 121110), > 64 µg/mL; in assay [2] (setting [4]), > 30 µM.
For “H-FRNKIKEKLKKIGQKIQGLLPKL-OH [CAP-18_23]”, the MIC is > 64 µg/mL in assay [1] (Strain 121007), > 24 µM in assay [1] (setting [3]), > 32 µg/mL in assay [2] (ATCC 121110) and > 12 µM in assay [2] (setting [4]).
With `CC[C@@H](C)[C@@H](NC(=O)CNC(=O)[C@@H](CCC(N)=O)NC(=O)[C@@H](CCCCN)NC(=O)[C@H](NC(=O)[C@@H](CCC(N)=O)NC(=O)CNC(=O)[C@@H](CC(C)C)NC(=O)[C@@H](CC(C)C)NC(=O)[C@H]1CCCN1C(=O)[C@@H](CCCCN)NC(=O)[C@@H](CC(C)C)NC(=O)[C@@H](C)NC(=O)[C@H]1CCCN1C(=O)[C@@H](CCCNC(=N)N)NC(=O)[C@H](NC(=O)[C@@H](CC(=O)O)NC(=O)[C@H](N)Cc1ccc(O)cc1)[C@H](C)O)[C@H](C)CC)C(=O)N[C@H](CCCCN)C(=O)N[C@H](CCCCN)C(=O)N[C@H](CC(C)C)C(=O)N[C@H](CCCCN)C(=O)N[C@H](CCC(=O)O)C(=O)N[C@H](CCCCN)C(=O)N[C@@H](C(=O)N[C@H](CCCCN)C(=O)N[C@H](CC(N)=O)C(=O)N[C@H](CCCNC(=N)N)C(=O)N[C@H](Cc1ccccc1)C(=O)N[C@H](CCCCN)C(=O)N[C@H](CCCNC(=N)N)C(=O)N[C@H](CC(C)C)C(=O)N[C@H](CCCNC(=N)N)C(=O)N[C@H](CCCCN)C(=O)N[C@H](CCCNC(=N)N)C(=O)N[C@H](CC(C)C)C(=O)NCC(=O)O)[C@H](C)CC` [R-CAP-18, Ydtrpalkpllgqikqgikklkekiknrfkrlrkrlg] (H-[dY][dD][dT][dR][dP][dA][dL][dK][dP][dL][dL]G[dQ][dI][dK][dQ]G[dI][dK][dK][dL][dK][dE][dK][dI][dK][dN][dR][dF][dK][dR][dL][dR][dK][dR][dL]G-OH), the MIC in assay [1] (Strain 121007) came out at 2 µg/mL; in assay [1] (setting [3]), 0.4 µM; in assay [2] (Strain ATCC 121110) it was 32 µg/mL; in assay [2] (setting [4]), 7.2 µM.
With H-GLRKRLRKFRNKIKEKLKKIG-OH [CAP-18_21], the MIC in assay [1] (Strain 121007) worked out at 32 µg/mL; in assay [1] (setting [3]), 12 µM; in assay [2] (ATCC 121110), 32 µg/mL; in assay [2] (setting [4]), 12 µM.
On to H-IKEKLKKIGQKIQGLLPKL-OH [CAP-18_19], for which the MIC was > 64 µg/mL in assay [1] (Strain 121007), > 29 µM in assay [1] (setting [3]), > 64 µg/mL in assay [2] (ATCC 121110) and > 29 µM in assay [2] (setting [4]).
As for H-IKEKLKKIGQKIQG-OH [CAP-18_14], the MIC in assay [1] (Strain 121007) was > 64 µg/mL; in assay [2] (ATCC 121110), > 64 µg/mL; in assay [2] (setting [4]), > 40 µM.

For the origin of these results see paper PMC12382740, “In Vitro and In Vivo Characterization of Novel Cathelicidin-Based Peptides with Antimicrobial Activity Against Pseudomonas aeruginosa” (Antibiotics, 2025).
